Earlier results in patent US20170216178A1, “Cosmetic or Dermatological Composition Containing Retinaldehyde and DNA” (GALEPHAR PHARMACEUTICAL RESEARCH, INC., priority 2016, published 2017).

Experiments:
P. acnes = conditions: against P. acnes
skin cancer = conditions: mice
comedones = conditions: topical; compared with retinoic acid (tretinoin); rhino mouse model
skin = conditions: topical; compared with retinoids

In the case of O=C(O)CCCCCCCC(=O)O [azelaic acid], the intra-follicular antibacterial activity (P. acnes) is given as “showed an intra-follicular antibacterial activity”.

In the case of O=C(OOC(=O)c1ccccc1)c1ccccc1 [benzoyl peroxide], the “potential for the development of skin cancer” value (skin cancer) is listed as “may increase the potential for the development of skin cancer”.

For CC1=C(/C=C/C(C)=C/C=C/C(C)=C/C=O)C(C)(C)CCC1 [retinaldehyde], the comedolytic action (comedones) is given as “identical to that of retinoic acid” and the skin tolerance (skin) is given as “significantly higher skin tolerance”.
